According to patent US9302999B2, “Substituted triazoles as herbicides” (E. I. DU PONT DE NEMOURS AND COMPANY, priority 2012, dated 2016):

How the values were obtained:
Type in all cases: in vivo
[1] = tested on: wheat (Triticum aestivum); experiment: Test A pre-/postemergence: wheat
Procedure, shortened: (§1)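 Whole-plant greenhouse assay in loam/sand. Preemergence directed soil spray plus simultaneous postemergence spray (one- to two-leaf stage, 2–10 cm). Rated visually ~10 days later, 0 = no effect, 100 = complete control.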

rice (Oryza sativa) = experiment: Test B flooded paddy: rice; settings: Flood, applied to paddy water at 2-leaf stage, visually evaluated after 13 to 15 days
Procedure, shortened: (§2)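 Response scored visually, 0–100 relative to controls, 13–15 days after the compound was applied into paddy water; plants were at the 2-leaf stage in pots kept flooded to 3 cm.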

[2] = tested on: barnyardgrass (Echinochloa crus-galli); experiment: Test A pre-/postemergence: barnyardgrass
Procedure, shortened: as §1

[3] = tested on: ducksalad (Heteranthera limosa); experiment: Test B flooded paddy: ducksalad; settings: Flood, applied to paddy water at 2-leaf stage, visually evaluated after 13 to 15 days
Procedure, shortened: as §2

[4] = tested on: morningglory (Ipomoea spp.); experiment: Test A pre-/postemergence: morningglory
Procedure, shortened: as §1

corn (Zea mays) = experiment: Test A pre-/postemergence: corn
Procedure, shortened: as §1

[5] = tested on: pigweed (Amaranthus retroflexus); experiment: Test A pre-/postemergence: pigweed
Procedure, shortened: as §1

[6] = tested on: foxtail, giant (giant foxtail, Setaria faberii); experiment: Test A pre-/postemergence: foxtail, giant
Procedure, shortened: as §1

[7] = tested on: velvetleaf (Abutilon theophrasti); experiment: Test A pre-/postemergence: velvetleaf
Procedure, shortened: as §1

[8] = tested on: barnyardgrass (Echinochloa crus-galli); experiment: Test B flooded paddy: barnyardgrass; settings: Flood, applied to paddy water at 2-leaf stage, visually evaluated after 13 to 15 days
Procedure, shortened: as §2

[9] = tested on: crabgrass, large (large crabgrass, Digitaria sanguinalis); experiment: Test A pre-/postemergence: crabgrass, large
Procedure, shortened: as §1

[10] = tested on: sedge, umbrella (small-flower umbrella sedge Cyperus difformis); experiment: Test B flooded paddy: sedge, umbrella; settings: Flood, applied to paddy water at 2-leaf stage, visually evaluated after 13 to 15 days
Procedure, shortened: as §2

[11] = Postemergence, 125 g ai/ha, 0 to 100 scale, 0 is no effect, 100 is complete control
[12] = Postemergence, 500 g ai/ha, 0 to 100 scale, 0 is no effect, 100 is complete control
[13] = Preemergence, 125 g ai/ha, 0 to 100 scale where 0 is no effect and 100 is complete control
[14] = Preemergence, 500 g ai/ha, 0 to 100 scale (0 no effect, 100 complete control)
[15] = Postemergence, 500 g ai/ha, visual rating on 0 to 100 scale (0 no effect, 100 complete control), approximately ten days
[16] = Preemergence, 125 g ai/ha, 0 to 100 scale (0 no effect, 100 complete control)
[17] = Preemergence, 500 g ai/ha, 0 to 100 scale, 0 is no effect, 100 is complete control

FC(F)(F)c1cccc(-n2nc(Oc3ccnc(C(F)(F)F)c3)c(C3CC3)n2)c1 [Compound 199]
Plant response rating, Wheat [1, 11]: 0 | Wheat plant response rating [1, 12]: 0 | Plant response rating, Wheat [1, 13]: 0 | Plant response rating, Wheat [1, 14]: 0 | Plant response rating, Rice (0 to 100 scale, 0 is no effect, 100 is complete control) (rice (Oryza sativa); 125 g ai/ha): 0 | Plant response rating, Barnyardgrass [2, 11]: 10 | Barnyardgrass plant response rating [2, 12]: 10 | Plant response rating, Barnyardgrass [2, 13]: 0 | Plant response rating, Barnyardgrass [2, 14]: 0 | Plant response rating, Ducksalad (0 to 100 scale, 0 is no effect, 100 is complete control) ([3]; 125 g ai/ha): 0 | Plant response rating, Morningglory [4, 11]: 10 | Morningglory plant response rating [4, 12]: 20 | Plant response rating, Morningglory [4, 13]: 0 | Plant response rating, Morningglory [4, 14]: 0 | Plant response rating, Corn (corn (Zea mays); [11]): 10 | Corn plant response rating (corn (Zea mays); [12]): 20 | Plant response rating, Corn (corn (Zea mays); [13]): 0 | Plant response rating, Corn (corn (Zea mays); [14]): 0 | Plant response rating, Pigweed [5, 11]: 20 | Pigweed plant response rating [5, 12]: 60 | Plant response rating, Pigweed [5, 13]: 10 | Plant response rating, Pigweed [5, 14]: 30 | Plant response rating, Foxtail, Giant [6, 11]: 10 | Foxtail, Giant plant response rating [6, 12]: 20 | Plant response rating, Foxtail, Giant [6, 13]: 0 | Plant response rating, Foxtail, Giant [6, 14]: 50 | Plant response rating, Velvetleaf [7, 11]: 10 | Velvetleaf plant response rating [7, 12]: 10 | Plant response rating, Velvetleaf [7, 13]: 0 | Plant response rating, Velvetleaf [7, 14]: 0 | Plant response rating, Barnyardgrass (0 to 100 scale, 0 is no effect, 100 is complete control) ([8]; 125 g ai/ha): 0 | Plant response rating, Crabgrass, Large [9, 11]: 10 | Crabgrass, Large plant response rating [9, 12]: 20 | Plant response rating, Crabgrass, Large [9, 13]: 20 | Plant response rating, Crabgrass, Large [9, 14]: 70 | Plant response rating, Sedge, Umbrella (0 to 100 scale, 0 is no effect, 100 is complete control) ([10]; 125 g ai/ha): 0

CON=C(c1cccc(C(F)(F)F)c1)c1nn(-c2ccnc(C(F)(F)F)c2)nc1C [Compound 140]
Plant response rating, Wheat [1, 11]: 10 | Wheat plant response rating [1, 15]: 20 | Plant response rating, Wheat [1, 13]: 0 | Plant response rating, Wheat [1, 14]: 0 | Plant response rating, Rice (0 to 100 scale, 0 is no effect, 100 is complete control) (rice (Oryza sativa); 250 g ai/ha): 0 | Barnyardgrass plant response rating [2, 11]: 10 | Barnyardgrass plant response rating [2, 15]: 30 | Plant response rating, Barnyardgrass [2, 13]: 0 | Plant response rating, Barnyardgrass [2, 14]: 30 | Plant response rating, Ducksalad (0 to 100 scale, 0 is no effect, 100 is complete control) ([3]; 250 g ai/ha): 0 | Plant response rating, Morningglory [4, 11]: 50 | Morningglory plant response rating [4, 15]: 90 | Plant response rating, Morningglory [4, 13]: 0 | Plant response rating, Morningglory [4, 14]: 0 | Corn plant response rating (corn (Zea mays); [11]): 20 | Corn plant response rating (corn (Zea mays); [15]): 30 | Plant response rating, Corn (corn (Zea mays); [13]): 0 | Plant response rating, Corn (corn (Zea mays); [14]): 0 | Plant response rating, Pigweed [5, 11]: 100 | Pigweed plant response rating [5, 15]: 100 | Plant response rating, Pigweed [5, 13]: 30 | Plant response rating, Pigweed [5, 14]: 80 | Foxtail, Giant plant response rating [6, 11]: 20 | Foxtail, Giant plant response rating [6, 15]: 50 | Plant response rating, Foxtail, Giant [6, 13]: 20 | Plant response rating, Foxtail, Giant [6, 14]: 70 | Plant response rating, Velvetleaf [7, 11]: 20 | Velvetleaf plant response rating [7, 15]: 70 | Plant response rating, Velvetleaf [7, 13]: 20 | Plant response rating, Velvetleaf [7, 14]: 30 | Plant response rating, Barnyardgrass (0 to 100 scale, 0 is no effect, 100 is complete control) ([8]; 250 g ai/ha): 30 | Crabgrass, Large plant response rating [9, 11]: 20 | Crabgrass, Large plant response rating [9, 15]: 50 | Plant response rating, Crabgrass, Large [9, 13]: 20 | Plant response rating, Crabgrass, Large [9, 14]: 50 | Plant response rating, Sedge, Umbrella (0 to 100 scale, 0 is no effect, 100 is complete control) ([10]; 250 g ai/ha): 0

Cc1cnccc1Oc1nn(-c2ccc(F)cc2)nc1C [Compound 87]
Wheat plant response rating [1, 11]: 0 | Wheat plant response rating [1, 15]: 0 | Plant response rating, Wheat [1, 16]: 0 | Plant response rating, Wheat [1, 17]: 0 | Plant response rating, Rice (0 to 100 scale, 0 is no effect, 100 is complete control) (rice (Oryza sativa); 250 g ai/ha): 0 | Barnyardgrass plant response rating [2, 11]: 0 | Barnyardgrass plant response rating [2, 15]: 0 | Plant response rating, Barnyardgrass [2, 16]: 0 | Plant response rating, Barnyardgrass [2, 17]: 0 | Plant response rating, Ducksalad (0 to 100 scale, 0 is no effect, 100 is complete control) ([3]; 250 g ai/ha): 0 | Morningglory plant response rating [4, 11]: 0 | Morningglory plant response rating [4, 15]: 0 | Plant response rating, Morningglory [4, 16]: 0 | Plant response rating, Morningglory [4, 17]: 0 | Corn plant response rating (corn (Zea mays); [11]): 0 | Corn plant response rating (corn (Zea mays); [15]): 0 | Plant response rating, Corn (corn (Zea mays); [16]): 0 | Plant response rating, Corn (corn (Zea mays); [17]): 0 | Pigweed plant response rating [5, 11]: 0 | Pigweed plant response rating [5, 15]: 0 | Plant response rating, Pigweed [5, 16]: 0 | Plant response rating, Pigweed [5, 17]: 0 | Foxtail, Giant plant response rating [6, 11]: 0 | Foxtail, Giant plant response rating [6, 15]: 0 | Plant response rating, Foxtail, Giant [6, 16]: 0 | Plant response rating, Foxtail, Giant [6, 17]: 0 | Velvetleaf plant response rating [7, 11]: 0 | Velvetleaf plant response rating [7, 15]: 0 | Plant response rating, Velvetleaf [7, 16]: 0 | Plant response rating, Velvetleaf [7, 17]: 0 | Plant response rating, Barnyardgrass (0 to 100 scale, 0 is no effect, 100 is complete control) ([8]; 250 g ai/ha): 0 | Crabgrass, Large plant response rating [9, 11]: 0 | Crabgrass, Large plant response rating [9, 15]: 0 | Plant response rating, Crabgrass, Large [9, 16]: 0 | Plant response rating, Crabgrass, Large [9, 17]: 0 | Plant response rating, Sedge, Umbrella (0 to 100 scale, 0 is no effect, 100 is complete control) ([10]; 250 g ai/ha): 50

FC(F)(F)c1cccc(-n2nc(Oc3ccnc(C(F)(F)F)c3)c(C3CC3)n2)c1 [Compound 200]
Plant response rating, Wheat [1, 11]: 0 | Wheat plant response rating [1, 12]: 0 | Plant response rating, Wheat [1, 13]: 0 | Plant response rating, Wheat [1, 14]: 0 | Plant response rating, Rice (0 to 100 scale, 0 is no effect, 100 is complete control) (rice (Oryza sativa); 125 g ai/ha): 0 | Plant response rating, Barnyardgrass [2, 11]: 0 | Barnyardgrass plant response rating [2, 12]: 10 | Plant response rating, Barnyardgrass [2, 13]: 0 | Plant response rating, Barnyardgrass [2, 14]: 0 | Plant response rating, Ducksalad (0 to 100 scale, 0 is no effect, 100 is complete control) ([3]; 125 g ai/ha): 0 | Plant response rating, Morningglory [4, 11]: 10 | Morningglory plant response rating [4, 12]: 30 | Plant response rating, Morningglory [4, 13]: 0 | Plant response rating, Morningglory [4, 14]: 10 | Plant response rating, Corn (corn (Zea mays); [11]): 10 | Corn plant response rating (corn (Zea mays); [12]): 20 | Plant response rating, Corn (corn (Zea mays); [13]): 0 | Plant response rating, Corn (corn (Zea mays); [14]): 0 | Plant response rating, Pigweed [5, 11]: 50 | Pigweed plant response rating [5, 12]: 100 | Plant response rating, Pigweed [5, 13]: 50 | Plant response rating, Pigweed [5, 14]: 100 | Plant response rating, Foxtail, Giant [6, 11]: 10 | Foxtail, Giant plant response rating [6, 12]: 20 | Plant response rating, Foxtail, Giant [6, 13]: 70 | Plant response rating, Foxtail, Giant [6, 14]: 100 | Plant response rating, Velvetleaf [7, 11]: 10 | Velvetleaf plant response rating [7, 12]: 40 | Plant response rating, Velvetleaf [7, 13]: 0 | Plant response rating, Velvetleaf [7, 14]: 0 | Plant response rating, Barnyardgrass (0 to 100 scale, 0 is no effect, 100 is complete control) ([8]; 125 g ai/ha): 0 | Plant response rating, Crabgrass, Large [9, 11]: 10 | Crabgrass, Large plant response rating [9, 12]: 40 | Plant response rating, Crabgrass, Large [9, 13]: 80 | Plant response rating, Crabgrass, Large [9, 14]: 100 | Plant response rating, Sedge, Umbrella (0 to 100 scale, 0 is no effect, 100 is complete control) ([10]; 125 g ai/ha): 0
